The values that follow come from patent US5149778A, “Cyclic peptides for treating herpes infections” (Bio-Mega, Inc., priority 1989, dated 1992).

For the assay, the target named is T1, HSV-1 ribonucleotide reductase (Human herpesvirus 1, UniProt P08543).
T1 construct: obtained from quiescent BHK-21/C13 cells infected with strain F HSV-1 virus; endogenous in cells; host or cells: quiescent BHK-21/C13 cells infected with HSV-1 strain F (10 pfu/cell); partially purified viral enzyme
Description: Inhibition of Herpes Simplex Virus (HSV, type 1) ribonucleotide reductase. Format: biochemical. The settings on record: partially purified enzyme from BHK-21/C13 cells infected with strain F HSV-1; relative to control without peptide; mean of four assays; read-out: IC50 (concentration of the peptide producing 50% of the maximal inhibition of enzyme activity). From the text: Inhibition of Herpes Simplex Virus (HSV, type 1) Ribonucleotide Reductase
HSV-1 ribonucleotide reductase (partially purified) was obtained from quiescent BHK-21/C13 cells infected with strain F HSV-1 virus at 10 plaque forming units/cell as described by E. A. Cohen et al., J. Gen. Virol., 66, 733 (1985).
The procedure described by P. Gaudreau et al., J. Biol, Chem., 262, 12413 (1987) was employed. The assay result for each peptide is expressed as the concentration of the peptide producing 50% of the maximal inhibition (IC50) of enzyme activity. The number of units of the enzyme preparation used in each assay was constant, based on the specific activity of the enzyme preparation. The results are relative to the activity obtained in control experiments without peptide and represent the mean of four assays that varied less than 10% with each other.

Structures are written as SMILES. Where a SMILES comes first, the peptide text is derived from it. Bridges are numbered along the chain shown (N, C = ends). [ ]: non-standard residue; d: D form. NMeV = CN[C@H](C(=O)O)C(C)C

T1 sequence (P08543 whole entry): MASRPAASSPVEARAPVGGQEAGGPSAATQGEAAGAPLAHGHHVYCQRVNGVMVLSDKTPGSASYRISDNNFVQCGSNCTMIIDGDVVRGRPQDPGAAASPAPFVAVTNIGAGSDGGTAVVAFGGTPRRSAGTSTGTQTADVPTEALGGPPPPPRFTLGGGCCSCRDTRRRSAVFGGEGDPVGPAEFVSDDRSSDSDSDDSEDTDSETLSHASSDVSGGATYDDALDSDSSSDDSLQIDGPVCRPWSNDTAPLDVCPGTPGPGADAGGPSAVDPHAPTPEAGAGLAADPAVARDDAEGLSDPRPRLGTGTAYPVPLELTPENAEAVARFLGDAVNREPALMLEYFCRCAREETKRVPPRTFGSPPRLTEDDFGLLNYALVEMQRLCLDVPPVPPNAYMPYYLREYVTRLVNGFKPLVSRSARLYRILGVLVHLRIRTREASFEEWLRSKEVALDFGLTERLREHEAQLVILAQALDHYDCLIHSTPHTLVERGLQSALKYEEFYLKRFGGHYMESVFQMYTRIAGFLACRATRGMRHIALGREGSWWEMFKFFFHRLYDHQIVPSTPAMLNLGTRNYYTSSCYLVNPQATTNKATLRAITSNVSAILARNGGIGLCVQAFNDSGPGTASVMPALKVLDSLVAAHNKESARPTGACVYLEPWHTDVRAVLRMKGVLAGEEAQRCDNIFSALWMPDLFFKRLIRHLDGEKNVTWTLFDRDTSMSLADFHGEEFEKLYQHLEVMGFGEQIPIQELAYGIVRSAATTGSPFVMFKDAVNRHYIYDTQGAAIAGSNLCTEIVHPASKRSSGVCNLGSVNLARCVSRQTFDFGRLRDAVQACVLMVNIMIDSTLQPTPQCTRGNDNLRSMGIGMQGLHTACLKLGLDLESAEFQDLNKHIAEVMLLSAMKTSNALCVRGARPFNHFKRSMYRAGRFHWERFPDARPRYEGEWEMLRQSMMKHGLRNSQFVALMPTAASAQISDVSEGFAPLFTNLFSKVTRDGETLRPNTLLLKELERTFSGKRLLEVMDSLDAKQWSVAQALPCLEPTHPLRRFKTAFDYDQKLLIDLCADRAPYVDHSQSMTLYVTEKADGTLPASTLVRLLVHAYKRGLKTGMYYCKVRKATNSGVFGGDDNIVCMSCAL

On to `CC[C@H](C)[C@@H]1NC(=O)[C@H](C(C)C)NC(=O)[C@H]([C@@H](C)O)NC(=O)CNC(=O)[C@H](C)NC(=O)[C@H](Cc2ccc(O)cc2)NC(=O)C[C@@H](C(=O)N[C@@H](CC(=O)O)C(=O)N[C@@H](CC(C)C)C(=O)O)NC1=O` [example 3] (YAGTVIDDL-OH; lactam N-7), for which the IC50 came to 16 µM.

Consider `CC[C@H](C)[C@@H]1NC(=O)[C@H](C(C)C)N(C)C(=O)[C@H](Cc2ccc(O)cc2)NC(=O)C[C@@H](C(=O)N[C@@H](CC(=O)O)C(=O)N[C@@H](CC(C)C)C(=O)O)NC1=O` [example 2] (Y[NMeV]IDDL-OH; lactam N-4), for which the IC50 is 140 µM.

Regarding `CC[C@H](C)[C@@H]1NC(=O)[C@H](C(C)C)NC(=O)[C@H](Cc2ccc(O)cc2)NC(=O)C[C@@H](C(=O)N[C@@H](CC(=O)O)C(=O)N[C@@H](CC(C)C)C(=O)O)NC1=O` [example 1] (YVIDDL-OH; lactam N-4), the IC50 was 14.3 µM.
